{
  "source": "patent US5424185A",
  "about": "“Human high-affinity neurotransmitter uptake system” (Baylor College of Medicine, priority 1990, dated 1995)",
  "key": {"[1]": {"system": "human glycine transporter (L-GLY2 cells)", "procedure": "The incubation was conducted for 40 min at 37° C. Each well was washed three times at room temperature with excess Ringer's buffer and then incubated with 50 μl of alkaline phosphatase buffer (100 mM Tris, pH 9.5, 100 mM NaCl, 10 mMMgCl2, 20 μg/ml saponin, 3.2 mg/ml p-nitrophenyl phosphate) for 1-2 hours at 37° C. The phosphatase assay was used as a relative assessment of cell number, and used to normalize the level of [^3 H]glycine associated with each well as described above. The phosphatase reading for each assayed well was plotted versus its corresponding level of [^3 H]glycine-retention.\n(§1) L-GLY2 and L-M cells were assayed for the uptake of [^3 H] glycine (0.1 μM) in the presence or absence of competing, unlabelled amino acids or neurotransmitters. Each competing ligand was present in 1000-fold molar excess (100 μM) of the [^3 H] glycine. […] The assays were performed at 37° C. for 40 minutes. Alanine, proline and serine, each at 1 mM, was added to the Ringer's buffer for all assays.\n(§2) At each concentration of [^3 H] glycine used, both uptake levels were converted to picomole-equivalents of [^3 H] glycine, then normalized by both length of assay and corresponding protein contents to arrive at the uptake velocity values. The nonspecific uptake velocity was then subtracted from the total uptake velocity to yield the specific uptake velocity. The specific uptake velocities and their corresponding [^3 H] glycine concentrations were analyzed by both Michaelis-Menten and Lineweaver-Burk transformations of the resulting kinetic profiles. For both analyses, data-points were fitted to either linear or logarithmic functions by computerized algorithms."}, "monkey retina": {"system": "monkey retina", "details": "tissue, published value, cited from earlier work"}, "mouse cerebral cortex": {"system": "mouse cerebral cortex", "details": "membrane preparation, published value, cited from earlier work"}, "[2]": {"system": "human brain (post-mortem)", "details": "membrane preparation, published value, cited from earlier work"}, "Y79 retinoblastoma": {"system": "Y79 retinoblastoma", "details": "cell, published value, cited from earlier work"}, "goldfish retina": {"system": "goldfish retina", "details": "tissue, published value, cited from earlier work"}, "frog spinal cord": {"system": "frog spinal cord", "details": "membrane preparation, published value, cited from earlier work"}, "chicken spinal cord": {"system": "chicken spinal cord", "details": "membrane preparation, published value, cited from earlier work"}, "rat spinal cord": {"system": "rat spinal cord", "details": "membrane preparation, published value, cited from earlier work"}, "rat brain": {"system": "rat brain", "details": "membrane preparation, published value, cited from earlier work"}, "frog retina": {"system": "frog retina", "details": "read-out: Km, frog retina; tissue, published value; cited from earlier work"}, "C6 glioblastoma": {"system": "C6 glioblastoma", "details": "read-out: Km, C6 glioblastoma; membrane preparation, published value; cited from earlier work"}, "frog brain": {"system": "frog brain", "details": "membrane preparation, published value, cited from earlier work"}, "chicken brain": {"system": "chicken brain", "details": "membrane preparation, published value, cited from earlier work"}, "[3]": {"system": "mouse pons-medulla-spinal cord", "details": "membrane preparation, published value, cited from earlier work"}, "[4]": {"system": "GABA transporter (L-GAB1 cells)", "test": "[3H]GABA uptake by L-GAB1 cells", "type": "cell-based, human", "details": "competitor at 100-fold excess relative to [3H]GABA", "procedure": "Using concentrations of [^3 H] GABA ranging from 2 to 500 μM, the kinetic profile of GABA uptake was determined for both L-GAB1 and L-M cells. The initial velocity of GABA uptake was measured and plotted against the corresponding [^3 H] GABA concentration for both cell lines. […] The velocity profile for L-GAB1 cells was subtracted by that of L-M cells, and the resulting data used for a double-reciprocal plot of velocity-^1 against GABA concentration-^1. The velocity profile for L-M cells was also transformed into a double-reciprocal plot.\nSeveral known inhibitors of high-affinity GABA uptake were used to examine their efficacies in inhibiting [^3 H] GABA uptake by L-GAB1 cells. […] Each of these agents was used at several concentrations ranging from 1 to 100 μM in assays of [^3 H] GABA uptake by L-GAB1 cells. […] GABA uptake by L-GAB1 cells.\nL-GAB1 cells were also analyzed in terms of their ligand-specificity in the high-affinity GABA uptake mechanism."}, "L-M cells": {"system": "L-M cells", "details": "ligand 100 μM (1000-fold excess), 0.1 μM [3H]glycine, 40 min, 37° C.", "procedure": "as §1, §2"}},
  "note": "Like-named read-outs stand apart in the source and are kept apart here.",
  "data": [
    {"molecule": "NCC(=O)O", "note": "[glycine]", "values": [
      {"measurement": "Vmax of glycine uptake, L-GLY2", "setting": "[1]; 50 nM to 5 μM [3H]glycine, 10 min, Lineweaver-Burk", "result": "10.19±3.32", "unit": "pmol/min/mg protein"},
      {"measurement": "Vmax, L-GLY2", "setting": "[1]; Table IV", "result": "10.19 ± 3.32", "unit": "pmol/mg/min"},
      {"measurement": "effect of competing ligand on [3H]glycine uptake, L-GLY2", "setting": "[1]; ligand 100 μM (1000-fold excess), 0.1 μM [3H]glycine, 40 min, 37° C., 1 mM alanine, proline, serine", "result": "reduced [^3 H] glycine transport into L-GLY2 cells to the same level as that of L-M cells"},
      {"measurement": "Km", "setting": "[1]; read-out: Km, L-GLY2, Table IV", "result": "1.5 ± 0.2", "unit": "µM"},
      {"measurement": "Km", "setting": "[1]; read-out: apparent Km of glycine uptake, L-GLY2, 50 nM to 5 μM [3H]glycine, 10 min, Lineweaver-Burk", "result": 1.5, "unit": "µM"},
      {"measurement": "Km", "setting": "monkey retina; read-out: Km, monkey retina", "result": "2.5 ± 0.9", "unit": "µM"},
      {"measurement": "Vmax, monkey retina", "setting": "monkey retina", "result": "3.30 ± 1.60", "unit": "pmol/mg/min"},
      {"measurement": "Vmax, mouse cerebral cortex", "setting": "mouse cerebral cortex", "result": "340 ± 70", "unit": "pmol/mg/min"},
      {"measurement": "Km", "setting": "mouse cerebral cortex; read-out: Km, mouse cerebral cortex", "result": "15.2 ± 2", "unit": "µM"},
      {"measurement": "Vmax, human brain (post-mortem)", "setting": "[2]", "result": "55 ± 25", "unit": "pmol/mg/min"},
      {"measurement": "Km", "setting": "[2]; read-out: Km, human brain (post-mortem)", "result": "35 ± 19", "unit": "µM"},
      {"measurement": "Vmax, Y79 retinoblastoma", "setting": "Y79 retinoblastoma", "result": "138.40 ± 12.40", "unit": "pmol/mg/min"},
      {"measurement": "Km", "setting": "Y79 retinoblastoma; read-out: Km, Y79 retinoblastoma", "result": "24.4 ± 2.6", "unit": "µM"},
      {"measurement": "Km", "setting": "goldfish retina; read-out: Km, goldfish retina", "result": "8.08 ± 0.7", "unit": "µM"},
      {"measurement": "Vmax, goldfish retina", "setting": "goldfish retina", "result": "8.71 ± 0.54", "unit": "pmol/mg/min"},
      {"measurement": "Vmax, frog spinal cord", "setting": "frog spinal cord", "result": "1.52 ± 0.03", "unit": "pmol/mg/min"},
      {"measurement": "Km", "setting": "frog spinal cord; read-out: Km, frog spinal cord", "result": "29 ± 0.7", "unit": "µM"},
      {"measurement": "Vmax, chicken spinal cord", "setting": "chicken spinal cord", "result": "0.65 ± 0.02", "unit": "pmol/mg/min"},
      {"measurement": "Km", "setting": "chicken spinal cord; read-out: Km, chicken spinal cord", "result": "41.8 ± 1", "unit": "µM"},
      {"measurement": "Vmax, rat spinal cord", "setting": "rat spinal cord", "result": "1.43 ± 0.02", "unit": "pmol/mg/min"},
      {"measurement": "Km", "setting": "rat spinal cord; read-out: Km, rat spinal cord", "result": "46.5 ± 1.6", "unit": "µM"},
      {"measurement": "Vmax, rat brain", "setting": "rat brain", "result": "0.48 ± 0.07", "unit": "pmol/mg/min"},
      {"measurement": "Km", "setting": "rat brain; read-out: Km, rat brain", "result": "34 ± 1.3", "unit": "µM"},
      {"measurement": "Km", "setting": "frog retina", "result": "> 4.7", "unit": "µM"},
      {"measurement": "Km", "setting": "C6 glioblastoma", "result": 100, "unit": "µM"},
      {"measurement": "Vmax, frog brain", "setting": "frog brain", "result": "1.14 ± 0.06", "unit": "pmol/mg/min"},
      {"measurement": "Km", "setting": "frog brain; read-out: Km, frog brain", "result": "24.8 ± 1.4", "unit": "µM"},
      {"measurement": "Vmax, chicken brain", "setting": "chicken brain", "result": "0.32 ± 0.01", "unit": "pmol/mg/min"},
      {"measurement": "Km", "setting": "chicken brain; read-out: Km, chicken brain", "result": "37 ± 2", "unit": "µM"},
      {"measurement": "Vmax, mouse pons-medulla-spinal cord", "setting": "[3]", "result": "3100 ± 100", "unit": "pmol/mg/min"},
      {"measurement": "Km", "setting": "[3]; read-out: Km, mouse pons-medulla-spinal cord", "result": "27.6 ± 2.6", "unit": "µM"},
      {"measurement": "ligand-specificity of [3H]GABA uptake by L-GAB1 cells", "setting": "[4]", "result": "not inhibited"},
      {"measurement": "effect of competing ligand on [3H]glycine uptake, L-M", "setting": "L-M cells", "result": "not significantly inhibited"}
    ]}
  ]
}
